The text below walks through data of patent publication EP4467137A1, “TREATMENT OF FRONTOTEMPORAL DEMENTIA OR FRONTOTEMPORAL LOBAR DEMENTIA” (Universidad Autónoma de Madrid, priority 2023, dated 2024).

The nature of series [1]: Cell viability/toxicity by the MTT method. It is filed as cell-based. Particulars: human, effect of the compound per se on AREc332 cells. An excerpt: (§1) Based on the results obtained (Table 2), Compound 1 was selected for further in vitro and in vivo studies as it was endowed with the best anti-neuroinflammatory activity. Table 2: Comparative in vitro results. Cell viability/toxicity: effect of the compound per se on cell viability of […] cells measured with the MTT method. Anti-neuroinflammatory effect: % Reduction of nitrites in primary rat glial cultures. PAMPA-BBB: In vitro blood-brain barrier permeation assay, permeation rate Pe (10-6 cm.s-1). NRF2, CD (µM): Concentration of compound that doubles de activation of NRF2. ORAC: Oxygen radical absorbance capacity. LOX-5: lipoxygenase-5.

The next series relates to NRF2. Put plainly: NRF2 induction, luciferase activity in AREc32 cells. As to conditions: concentration that doubles the activation of NRF2, read-out: NRF2 CD. It is filed as cell-based.
From the text: Screening of NRF2 induction was quantified by luciferase activity in AREc32 cells as described in [Herrera-Arozamena, Clara et al. "Tuning melatonin receptor subtype selectivity in oxadiazolone-based analogues: Discovery of QR2 ligands and NRF2 activators with neurogenic properties." European journal of medicinal chemistry vol. 190 (2020): 112090. doi:10.1016/j.ejmech.2020.112090].
as §1

For series [2], the system named is primary rat glial cultures. As to the kind of experiment: Anti-neuroinflammatory screening in LPS-treated primary glial cultures (Griess, normalized by MTT). It is filed as cell-based. As to conditions: % reduction of nitrites, LPS alone = 100 % inflammation, read-out: Anti-neuro inflammatory effect at 3 µM (%). The procedure:
Screening for anti-inflammatory properties in primary rat glial cultures was performed according to the protocol described previously [Gameiro, Isabel et al. "Discovery of the first dual GSK3β inhibitor/Nrf2 inducer. A new multitarget therapeutic strategy for Alzheimer's disease." Scientific reports vol. 7 45701. 31 Mar. 2017, doi:10.1038/srep45701]. All compounds were evaluated at the single concentration of 3 µM. Neuroinflammation was quantified as the value of released […], measured by the Griess method, normalized by the number of viable cells measured by the MTT method [Mosmann, T. "Rapid colorimetric assay for cellular growth and survival: application to proliferation and cytotoxicity assays." Journal of immunological methods vol. 65, 1-2 (1983): 55-63. doi:10.1016/0022-1759(83)90303-4]. LPS alone was considered 100 % inflammation.
as §1
A general note: Nitrite, measured by Griess reagent, commonly stands in for NO production.

For series [3], the target named is T1, human lipoxygenase-5 (hLOX-5) (Homo sapiens, UniProt P09917).
T1 sequence (P09917 1-674): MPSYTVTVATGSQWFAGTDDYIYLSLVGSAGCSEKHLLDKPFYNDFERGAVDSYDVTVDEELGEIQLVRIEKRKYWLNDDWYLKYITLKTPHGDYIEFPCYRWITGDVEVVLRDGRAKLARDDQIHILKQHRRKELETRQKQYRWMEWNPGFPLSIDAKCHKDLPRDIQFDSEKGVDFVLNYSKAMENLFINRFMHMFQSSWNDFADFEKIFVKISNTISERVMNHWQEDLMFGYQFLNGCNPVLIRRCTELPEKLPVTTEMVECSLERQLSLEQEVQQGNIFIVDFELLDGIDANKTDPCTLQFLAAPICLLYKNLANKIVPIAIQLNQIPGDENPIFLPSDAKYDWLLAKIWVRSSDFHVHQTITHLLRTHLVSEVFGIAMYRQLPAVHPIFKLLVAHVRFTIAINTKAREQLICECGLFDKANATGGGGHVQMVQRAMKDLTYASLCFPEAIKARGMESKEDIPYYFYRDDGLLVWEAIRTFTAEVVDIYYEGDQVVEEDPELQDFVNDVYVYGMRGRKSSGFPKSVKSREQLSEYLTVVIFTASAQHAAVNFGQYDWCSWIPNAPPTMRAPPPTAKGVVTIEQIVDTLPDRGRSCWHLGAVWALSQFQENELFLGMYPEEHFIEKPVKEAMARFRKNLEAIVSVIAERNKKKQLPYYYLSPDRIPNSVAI
Put plainly: Inhibition of human lipoxygenase-5. It is filed as biochemical. As to conditions: mean ± SD of three independent experiments in triplicate; read-out: LOX5 IC50. The procedure: The inhibition of human lipoxygenase-5 (hLOX-5) was performed as described [Herrera-Arozamena, Clara et al. "Tuning melatonin receptor subtype selectivity in oxadiazolone-based analogues: Discovery of QR2 ligands and NRF2 activators with neurogenic properties." European journal of medicinal chemistry vol. 190 (2020): 112090. doi:10.1016/j.ejmech.2020.112090], Data are the mean ± SD of three independent experiments performed in triplicate.

The nature of series [4]: Oxygen Radical Absorbance Capacity Assay (ORAC). It is filed as physicochemical. As to conditions: ORAC > 1.0 is a better ROS scavenger than trolox. The procedure: The Oxygen Radical Absorbance Capacity Assay (ORAC) was performed as described [Herrera-Arozamena, Clara et al. "Resveratrol-Based MTDLs to Stimulate Defensive and Regenerative Pathways and Block Early Events in Neurodegenerative Cascades." Journal of medicinal chemistry vol. 65,6 (2022): 4727-4751. doi:10.1021/acs.jmedchem.1c01883].

The nature of series [5]: In vitro blood-brain barrier permeation assay (PAMPA-BBB). Particulars: for Papp: PAMPA, permeation rate, mean ± SD, read-out: PAMPA-BBB Pe. It is filed as in vitro ADME. An excerpt:
The in vitro blood-brain barrier permeation assay (PAMPA-BBB) was used for predicting the brain penetration of compounds, following a described method [Herrera-Arozamena, Clara et al. "Resveratrol-Based MTDLs to Stimulate Defensive and Regenerative Pathways and Block Early Events in Neurodegenerative Cascades." Journal of medicinal chemistry vol. 65,6 (2022): 4727-4751. doi:10.1021/acs.jmedchem.1c01883]. The results are given as the mean ± SD. In each experiment, 11 quality control standards of known BBB permeability were included to validate the analysis set.
In general terms: In PAMPA a lipid-coated filter parts donor from acceptor wells.

What is called CC50 is the concentration giving 50% cytotoxicity. The term IC50 denotes the concentration that inhibits the measured activity by half.

As for `COc1ccc2[nH]c(-c3c[nH]c4ccc(OC)cc34)cc2c1` [Compound 2, 5,5'-Dimethoxy-1H,1'H-2,3'-biindole], the cytotoxic concentration (CC50) in series [1] was in the range of 3 to 10 µM. The EC (2-fold activation) with NRF2 is 0.329 ± 0.017 µM. Besides, the inhibition at 3 µM in series [2] amounted to 33.2 ± 11.8%. In addition, in series [3], the IC50 was 0.42 ± 0.03 µM. Moreover, the “ORAC (trolox equiv.)” value in series [4] was found to be 1.5 ± 0.2 trolox equiv. Also, in series [5], the “PAMPA-BBB predicted brain penetration” value is given as “cns+” and the Papp is 8.7 ± 0.6 ×10⁻⁶ cm/s.

Turning to `c1ccc2c(c1)CC(c1c[nH]c3ccccc13)N2` (stereo not shown) [Compound 3, 3-(Indolin-2-yl)-1H-indole], the CC50 in series [1] is greater than 30 µM. Besides, the EC (2-fold activation) in the series with NRF2 turned out to be 0.0713 ± 0.031 µM. For the same compound, the inhibition at 3 µM in series [2] turned out to be 24.4 ± 6.7%. Also, the IC50 in series [3] stood at 2.89 ± 0.44 µM. The “ORAC (trolox equiv.)” value in series [4] is given as 1.9 ± 0.1 trolox equiv. Besides, in series [5], the “PAMPA-BBB predicted brain penetration” value is “cns+” and the Papp is 11.5 ± 0.8 ×10⁻⁶ cm/s.

`Clc1ccc2c(c1)CC(c1c[nH]c3ccc(Cl)cc13)N2` (stereo not shown) [Compound 4, 5-Chloro-3-(5-chloroindolin-2-yl)-1H-indole] returned a CC50 in series [1] of 10 to 30 µM. In addition, in the series on NRF2, the EC (2-fold activation) was 2.04 ± 0.2 µM. Moreover, in series [2], the inhibition at 3 µM was 29.6 ± 9.4%. In addition, the half-maximal inhibitory concentration (IC50) in series [3] is 4.57 ± 0.25 µM. Further, the “ORAC (trolox equiv.)” value in series [4] came to 1.6 ± 0.2 trolox equiv. Moreover, in series [5], the “PAMPA-BBB predicted brain penetration” value is “cns+” and the Papp was 5.2 ± 0.4 ×10⁻⁶ cm/s.

As to `Clc1ccc2[nH]c(-c3c[nH]c4ccc(Cl)cc34)cc2c1` [Compound 5, 5,5'-Dichloro-1H,1'H-2,3'-biindole], the CC50 in series [1] is greater than 30 µM. Besides, the EC (2-fold activation) in the series on NRF2 stood at 2.57 ± 0.68 µM. The inhibition at 3 µM in series [2] turned out to be 30 ± 10%. Besides, in series [3], the concentration for half-maximal inhibition (IC50) is greater than 100 µM. Further, the “ORAC (trolox equiv.)” value in series [4] turned out to be 0.5 ± 0.1 trolox equiv. Also, in series [5], the “PAMPA-BBB predicted brain penetration” value is “cns+” and the Papp was 10.9 ± 0.7 ×10⁻⁶ cm/s.

Turning to `COc1cccc2c1NC(c1c[nH]c3c(OC)cccc13)C2` (stereo not shown) [Compound 6, 7-Methoxy-3-(7-methoxyindolin-2-yl)-1H-indole], the CC50 in series [1] is greater than 30 µM. The EC (2-fold activation) in the series on NRF2 came to 3.27 ± 0.25 µM. Moreover, the inhibition at 3 µM in series [2] is 45 ± 8.7%. Also, the half-maximal inhibitory concentration (IC50) in series [3] was greater than 100 µM. Also, in series [4], the “ORAC (trolox equiv.)” value is 1.0 ± 0.1 trolox equiv. In series [5], the “PAMPA-BBB predicted brain penetration” value is “cns+” and the Papp worked out at 18.5 ± 0.8 ×10⁻⁶ cm/s.

`FC(F)(F)c1ccc2c(c1)CC(c1c[nH]c3ccc(C(F)(F)F)cc13)N2` (stereo not shown) [Compound 7, 5-(Trifluoromethyl)-3-(5-(trifluoromethyl)indolin-2-yl)-1H-indole] yielded a 50% cytotoxic concentration (CC50) in series [1] of 10 to 30 µM. Further, the EC (2-fold activation) in the series with NRF2 is greater than 30 µM. The inhibition at 3 µM in series [2] was 45 ± 7.1%. Further, the IC50 in series [3] stood at 6.63 ± 0.21 µM. Also, the “ORAC (trolox equiv.)” value in series [4] was 1.3 ± 0.1 trolox equiv. In addition, in series [5], the “PAMPA-BBB predicted brain penetration” value is reported as “cns+” and the Papp worked out at 18.1 ± 0.9 ×10⁻⁶ cm/s.

With `C#CCN1c2ccc(OC)cc2CC1c1cn(CC#C)c2ccc(OC)cc12` (stereo not shown) [Compound 8, 5-Methoxy-3-(5-methoxy-1-(prop-2-yn-1-yl)indolin-2-yl)-1-(prop-2-yn-1-yl)-1H-indole], the CC50 in series [1] is greater than 30 µM. In the series on NRF2, the EC (2-fold activation) is 10.7 ± 1.3 µM. Also, in series [2], the inhibition at 3 µM came out at 37 ± 11%. In series [3], the 50% inhibitory concentration (IC50) turned out to be 0.53 ± 0.02 µM. In series [4], the “ORAC (trolox equiv.)” value was determined as 1.3 ± 0.1 trolox equiv. In series [5], the “PAMPA-BBB predicted brain penetration” value is listed as “cns+” and the Papp is 8.3 ± 0.3 ×10⁻⁶ cm/s.
